Measured values reported in ChEMBL document CHEMBL1201862, “PubChem BioAssay data set” (2004).
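Results reflect a 48-hour exposure of cells in 96-well plates to compound at five concentrations. GI50 is the concentration that inhibits growth by half.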 Activity calls are given as the source filed them. Cut-off read from the data, not from the text of the source: active = GI50 up to about 1.1 µM and inactive = higher.

Legend:
Experiment in all cases: growth of human tumour cells (NCI), 48 h
MOLT-4 = tested on: MOLT-4
KM-20L2 = tested on: KM-20L2
K562 = tested on: K562
M19-MEL = tested on: M19-MEL
OVCAR-3 = tested on: OVCAR-3
HL-60 = tested on: HL-60
SF-268 = tested on: SF-268
UACC-62 = tested on: UACC-62
CCRF-CEM = tested on: CCRF-CEM
786-0 = tested on: 786-0
SF-295 = tested on: SF-295
HCT-116 = tested on: HCT-116
SNB-19 = tested on: SNB-19
OVCAR-4 = tested on: OVCAR-4
M14 = tested on: M14
HOP-62 = tested on: HOP-62
SK-MEL-28 = tested on: SK-MEL-28
NCI-H23 = tested on: NCI-H23
SNB-75 = tested on: SNB-75
SW-620 = tested on: SW-620
TK-10 = tested on: TK-10
SK-MEL-5 = tested on: SK-MEL-5
RXF 631 = tested on: RXF 631
NCI-H460 = tested on: NCI-H460
NCI-H522 = tested on: NCI-H522
SR = tested on: SR
SF-539 = tested on: SF-539
LOX IMVI = tested on: LOX IMVI
HCT-15 = tested on: HCT-15
ACHN = tested on: ACHN
SN12C = tested on: SN12C
LXFL 529 = tested on: LXFL 529
HT-29 = tested on: HT-29
DLD-1 = tested on: DLD-1
SK-MEL-2 = tested on: SK-MEL-2
SNB-78 = tested on: SNB-78
HCC 2998 = tested on: HCC 2998
EKVX = tested on: EKVX
OVCAR-8 = tested on: OVCAR-8
COLO 205 = tested on: COLO 205
DMS-114 = tested on: DMS-114
XF498 = tested on: XF498
KM12 = tested on: KM12
A549 = tested on: A549
U-251 = tested on: U-251
RXF 393 = tested on: RXF 393
IGROV-1 = tested on: IGROV-1
DMS-273 = tested on: DMS-273
NCI-H226 = tested on: NCI-H226
OVCAR-5 = tested on: OVCAR-5
CAKI-1 = tested on: CAKI-1
RPMI-8226 = tested on: RPMI-8226
UO-31 = tested on: UO-31
BT-549 = tested on: BT-549
PC-3 = tested on: PC-3
Malme-3M = tested on: Malme-3M
MCF7 = tested on: MCF7
SK-OV-3 = tested on: SK-OV-3
Hs-578T = tested on: Hs-578T
MDA-MB-435 = tested on: MDA-MB-435
MDA-N = tested on: MDA-N
HOP-92 = tested on: HOP-92
A498 = tested on: A498
UACC-257 = tested on: UACC-257
DU-145 = tested on: DU-145
T47D = tested on: T47D
HOP-18 = tested on: HOP-18
MDA-MB-231 = tested on: MDA-MB-231
NCI/ADR-RES = tested on: NCI/ADR-RES

Measured: GI50

COc1ccc2cc1Oc1ccc(cc1)CC1c3cc(c(OC)cc3CCN1C)Oc1c3c(cc4c1C(C2)N(C)CC4)OCO3 (configuration not stated)
inactive: MOLT-4 5.52 µM | KM-20L2 2.08 µM | K562 1.85 µM | M19-MEL 3.85 µM | OVCAR-3 15.7 µM | HL-60 1.92 µM | SF-268 8.36 µM | UACC-62 16.2 µM | CCRF-CEM 13.2 µM | 786-0 11.5 µM | SF-295 10.3 µM | HCT-116 12.8 µM | SNB-19 17.6 µM | OVCAR-4 4.58 µM | M14 1.87 µM | HOP-62 15.5 µM | SK-MEL-28 3.29 µM | NCI-H23 17 µM | SNB-75 3.74 µM | SW-620 13.1 µM | TK-10 2.19 µM | SK-MEL-5 12.3 µM | RXF 631 13.7 µM | NCI-H460 14.2 µM | NCI-H522 7.16 µM | SR 7.85 µM | SF-539 2.34 µM | LOX IMVI 1.85 µM | ACHN 4.58 µM | SN12C 11.4 µM | LXFL 529 13 µM | HT-29 2.46 µM | DLD-1 17 µM | SK-MEL-2 5.2 µM | SNB-78 13.9 µM | HCC 2998 11.5 µM | EKVX 14.9 µM | OVCAR-8 8.36 µM | COLO 205 3.89 µM | DMS-114 5.74 µM | XF498 9.55 µM | KM12 12.9 µM | A549 16 µM | U-251 5.14 µM | RXF 393 1.83 µM | IGROV-1 15.1 µM | DMS-273 3.44 µM | NCI-H226 2.35 µM | OVCAR-5 18.2 µM
4.42 µM: HCT-15

N=c1nc(N)c2cc3c(N)nc(=N)c3cc12
71.6 µM: HCT-15
inactive: MOLT-4 4.07 µM | KM-20L2 > 100 µM | K562 2.2 µM | M19-MEL 1.87 µM | CAKI-1 8.38 µM | OVCAR-3 27.9 µM | HL-60 2.02 µM | RPMI-8226 3.13 µM | UO-31 7.5 µM | BT-549 3.99 µM | SF-268 2.62 µM | UACC-62 3.72 µM | PC-3 36.1 µM | CCRF-CEM 2.28 µM | 786-0 4.86 µM | Malme-3M 2.95 µM | SF-295 14.9 µM | HCT-116 4.55 µM | SNB-19 58.6 µM | OVCAR-4 15.4 µM | M14 2.47 µM | HOP-62 12.4 µM | SK-MEL-28 2.45 µM | NCI-H23 35.3 µM | SNB-75 8.09 µM | SW-620 5.27 µM | TK-10 15.3 µM | SK-MEL-5 60.8 µM | MCF7 33.5 µM | SK-OV-3 28.6 µM | RXF 631 14.5 µM | NCI-H460 22.5 µM | NCI-H522 16 µM | SR 3.83 µM | Hs-578T 36.1 µM | SF-539 4.85 µM | LOX IMVI 2.49 µM | ACHN 63.5 µM | SN12C 5.07 µM | MDA-MB-435 3.19 µM | MDA-N 2.05 µM | LXFL 529 38.1 µM | HOP-92 3.94 µM | A498 > 9.27 µM | HT-29 82.2 µM | DLD-1 > 73.5 µM | SK-MEL-2 3.31 µM | SNB-78 9.35 µM | UACC-257 3.37 µM | DU-145 30.5 µM | HCC 2998 31.3 µM | T47D 8.51 µM | EKVX 25.2 µM | OVCAR-8 4.35 µM | COLO 205 > 91.8 µM | DMS-114 5.74 µM | HOP-18 8.97 µM | KM12 72.9 µM | A549 > 100 µM | U-251 11.5 µM | RXF 393 6.32 µM | IGROV-1 > 100 µM | DMS-273 30.7 µM | MDA-MB-231 2.69 µM | NCI-H226 13 µM | OVCAR-5 19.1 µM

COC1C(CO)OC(n2c3c(Cl)cccc3c3c4c(c5c6cccc(Cl)c6[nH]c5c32)C(=O)NC4=O)C(O)C1O (configuration not stated)
active: MOLT-4 0.0498 µM | KM-20L2 0.586 µM | K562 0.142 µM | M19-MEL 0.274 µM | CAKI-1 0.169 µM | OVCAR-3 0.292 µM | HL-60 0.22 µM | RPMI-8226 0.242 µM | UO-31 0.296 µM | NCI/ADR-RES 0.444 µM | BT-549 0.162 µM | SF-268 0.149 µM | UACC-62 0.113 µM | PC-3 0.227 µM | CCRF-CEM 0.0367 µM | 786-0 0.133 µM | Malme-3M 0.223 µM | SF-295 0.286 µM | HCT-116 0.097 µM | SNB-19 0.213 µM | OVCAR-4 0.337 µM | M14 0.333 µM | HOP-62 0.177 µM | SK-MEL-28 0.337 µM | NCI-H23 0.153 µM | SNB-75 0.234 µM | SW-620 0.0849 µM | TK-10 0.47 µM | SK-MEL-5 0.157 µM | MCF7 0.1 µM | SK-OV-3 0.303 µM | RXF 631 0.249 µM | NCI-H460 0.177 µM | NCI-H522 0.21 µM | SR 0.0282 µM | Hs-578T 0.31 µM | SF-539 0.195 µM | LOX IMVI 0.116 µM | ACHN 0.113 µM | SN12C 0.104 µM | MDA-MB-435 0.306 µM | MDA-N 0.324 µM | LXFL 529 0.33 µM | HOP-92 0.215 µM | A498 0.158 µM | HT-29 0.244 µM | DLD-1 0.568 µM | SK-MEL-2 0.386 µM | SNB-78 0.631 µM | UACC-257 0.219 µM | DU-145 0.202 µM | HCC 2998 0.367 µM | T47D 0.154 µM | EKVX 0.463 µM | OVCAR-8 0.177 µM | COLO 205 0.351 µM | DMS-114 0.258 µM | XF498 0.27 µM | KM12 0.614 µM | A549 0.298 µM | U-251 0.173 µM | RXF 393 0.225 µM | IGROV-1 0.299 µM | DMS-273 0.208 µM | MDA-MB-231 0.276 µM | NCI-H226 0.187 µM | OVCAR-5 0.796 µM
0.401 µM: HCT-15

CCN(CC)C1CC(n2cc(C)c(=O)[nH]c2=O)OC1CO (configuration not stated)
inactive: MOLT-4 > 100 µM | K562 > 100 µM | M19-MEL > 100 µM | CAKI-1 > 100 µM | HL-60 > 100 µM | RPMI-8226 > 100 µM | UO-31 > 100 µM | SF-268 > 100 µM | UACC-62 > 100 µM | CCRF-CEM > 100 µM | 786-0 > 100 µM | Malme-3M > 100 µM | HCT-116 > 100 µM | OVCAR-4 > 100 µM | M14 > 100 µM | HOP-62 > 100 µM | SK-MEL-28 > 100 µM | NCI-H23 > 100 µM | SNB-75 > 100 µM | SK-OV-3 > 100 µM | RXF 631 > 100 µM | NCI-H460 > 100 µM | NCI-H522 > 100 µM | SR > 100 µM | SF-539 > 100 µM | SN12C > 100 µM | LXFL 529 > 100 µM | HOP-92 > 100 µM | A498 > 100 µM | DLD-1 > 100 µM | SK-MEL-2 > 100 µM | SNB-78 > 100 µM | HCC 2998 > 100 µM | COLO 205 > 100 µM | DMS-114 > 100 µM | XF498 > 100 µM | IGROV-1 > 100 µM | DMS-273 > 100 µM | NCI-H226 > 100 µM

Cc1cc(C(=C2C=CC(=[N+](C)C)C=C2)c2ccc([N+](C)(C)C)cc2)ccc1N(C)C
inactive: MOLT-4 4.28 µM | KM-20L2 5.48 µM | K562 2.07 µM | M19-MEL 5.52 µM | CAKI-1 18.2 µM | OVCAR-3 12 µM | HL-60 2.3 µM | RPMI-8226 2.04 µM | UO-31 26.3 µM | SF-268 11.6 µM | UACC-62 5.55 µM | CCRF-CEM 2.48 µM | 786-0 21.6 µM | Malme-3M 15.8 µM | SF-295 5.2 µM | HCT-116 3.23 µM | SNB-19 24 µM | OVCAR-4 15.8 µM | M14 10.4 µM | HOP-62 25.2 µM | SK-MEL-28 11.3 µM | NCI-H23 10.1 µM | SNB-75 2.65 µM | SW-620 5.31 µM | TK-10 1.57 µM | SK-MEL-5 11.8 µM | SK-OV-3 15.8 µM | RXF 631 7.91 µM | NCI-H460 3.98 µM | NCI-H522 15.9 µM | SR 1.62 µM | SF-539 10.8 µM | LOX IMVI 4.79 µM | ACHN 10.7 µM | SN12C 5.07 µM | LXFL 529 6.98 µM | HOP-92 10.9 µM | A498 18.5 µM | HT-29 5.08 µM | DLD-1 6.65 µM | SK-MEL-2 15.2 µM | SNB-78 10.7 µM | UACC-257 12.1 µM | HCC 2998 13.8 µM | EKVX 4.32 µM | OVCAR-8 5.08 µM | COLO 205 10.1 µM | DMS-114 4.67 µM | XF498 1.36 µM | KM12 4.66 µM | A549 4.33 µM | U-251 5.53 µM | RXF 393 5.65 µM | IGROV-1 12.3 µM | DMS-273 5.01 µM | NCI-H226 16 µM | OVCAR-5 21.9 µM
33 µM: HCT-15
